Results reported in patent US9464060B2, “Compounds” (TAKEDA PHARMACEUTICAL COMPANY LIMITED, priority 2013, dated 2016).
Where a name gives a salt, the structure may show the parent alone.

Experiments:
LPA5 receptor [1] = biological target: T1, LPA5 receptor (Homo sapiens (Human), UniProt Q9H1C0); conditions: reported, cited from earlier work
LPA5 receptor [2] = biological target: T1, LPA5 receptor; experiment: In vitro LPA5 receptor assay (LPA-driven intracellular calcium release, FLIPR); type: cell-based; conditions: RH7777 cells expressing human LPA5 receptors; LPA at EC90
LPA5 receptor [3] = experiment: In vivo farnesyl pyrophosphate-induced hyperalgesia model (Randall-Selitto); conditions: rat, FPP-induced hyperalgesia
Experimental: In Vivo Farnesyl Pyrophosphate-Induced Inflammatory Model
The FPP-induced hyperalgesia model is a pharmacodynamic rat model which involves inducing pain by injecting FPP, an agonist of LPA5 receptor, into the plantar surface of the hindpaw.
Withdrawal responses were reassessed at 30 and 90 minutes after injection of FPP in the ipsilateral paw.

human LPA1 receptors = human LPA1 receptors (Homo sapiens (Human), UniProt Q92633); experiment: In vitro LPA1 receptor assay (LPA-driven intracellular calcium release, FLIPR); type: cell-based; conditions: RH7777 cells expressing human LPA1 receptors; LPA at EC80
Chain of human LPA1 receptors (Q92633 whole entry): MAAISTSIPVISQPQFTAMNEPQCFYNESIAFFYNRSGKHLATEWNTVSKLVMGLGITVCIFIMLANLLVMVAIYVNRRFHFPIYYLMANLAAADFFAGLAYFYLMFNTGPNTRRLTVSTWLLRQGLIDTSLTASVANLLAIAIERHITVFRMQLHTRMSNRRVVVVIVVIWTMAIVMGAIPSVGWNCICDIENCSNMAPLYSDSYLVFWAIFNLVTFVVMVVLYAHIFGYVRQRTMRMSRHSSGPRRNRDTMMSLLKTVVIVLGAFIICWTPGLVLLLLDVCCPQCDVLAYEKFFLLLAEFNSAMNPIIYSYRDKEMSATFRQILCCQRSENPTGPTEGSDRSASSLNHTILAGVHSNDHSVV

[4] = In vivo bleomycin induced scleroderma model; parameters: species or system C57BL/6 mice; conditions: mice, bleomycin i.d.
Experimental: In Vivo Bleomycin Induced Scleroderma Model Experimental Outline
Adult male C57BL/6 mice, aged 8-10 weeks, were assigned to groups and allowed to acclimatise for a week. On Day −1, the back skin of the animals was shaved. From Day 0, animals were administered with 100 μl of a 1 mg/ml solution of bleomycin sulphate in phosphate buffered saline (PBS) by intradermal injection in the shaved skin. Injections were repeated in a one square centimeter area every other day for four weeks. A group of ten animals (Control group) was injected with an identical volume of PBS. Animals were weighed at the beginning of the experiment on Day 0 and then twice weekly throughout the study. At the end of the experiment, on Day 28, animals were culled and samples of back skin were taken for further analysis. All groups were n=10; the vehicle was distilled water and the administration volume was 10 ml/kg for oral gavage (p.o.); administration volume was 25 μl for topical application.
Bodyweights were graphed along with the standard error of the mean (SEM); Skin samples (two punch biopsies per animal, 4 mm in diameter each) samples were hydrolyzed and hydroxyproline content of the samples was determined from analysis in a semi-automated process using a continuous flow analyzer. Autoanalyser readings were calibrated against hydroxyproline standards and collagen content calculated. […] Bleomycin administration induced a highly significant increase in skin collagen content when compared to the control, saline-injected, group (p<0.01).

T1 sequence (Q9H1C0 whole entry): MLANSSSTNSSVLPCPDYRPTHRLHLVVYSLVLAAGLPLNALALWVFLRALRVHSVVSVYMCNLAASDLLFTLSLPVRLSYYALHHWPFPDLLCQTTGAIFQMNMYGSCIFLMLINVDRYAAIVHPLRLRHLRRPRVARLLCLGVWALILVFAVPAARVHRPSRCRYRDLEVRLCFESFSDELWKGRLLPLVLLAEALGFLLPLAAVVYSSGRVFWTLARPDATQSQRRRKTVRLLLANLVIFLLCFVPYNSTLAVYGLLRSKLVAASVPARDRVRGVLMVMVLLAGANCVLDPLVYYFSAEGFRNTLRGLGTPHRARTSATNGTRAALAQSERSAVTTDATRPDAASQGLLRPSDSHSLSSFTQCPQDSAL

| Structure (SMILES) | IC50 (LPA5 receptor [2]) [nM] | IC50 (human LPA1 receptors) [nM] | skin collagen content compared to the vehicle-treated group ([4]; treatment from Day 0 to Day 28) | also measured |
| --- | --- | --- | --- | --- |
| CC(C)=CCC/C(C)=C/CC/C(C)=C/COP(=O)(O)OP(=O)(O)O [Farnesyl pyrophosphate] | – | – | – | EC50 (LPA5 receptor [1]; LPA5 receptor, read-out: in-vitro EC50): 49 nM; selectivity over other LPA receptors (LPA5 receptor [1]): 3 fold |
| O=C(O)c1ccc(CN(Cc2ccccc2)C(=O)c2ccc(Oc3ccccc3F)cc2)cc1 [Example 11, 4-((N-Benzyl-4-(2-fluorophenoxy)benzamido)methyl)benzoic acid] | 6 | 6 | – | In vivo efficacy (minimum effective dose (MED) mg/kg) (LPA5 receptor [3]; route po): ≦10 mg/kg |
| O=C(O)c1ccc(CN(CC2CC2)C(=O)c2ccc(Oc3ccccc3F)cc2)cc1 [Example 5, 4-((N-(Cyclopropylmethyl)-4-(2-fluorophenoxy)benzamido)-methyl)benzoic acid] | 16 | 46 | significant reduction | bodyweight loss compared to the vehicle-treated group ([4]; 30 mg/kg p.o. BID): did not differ; skin collagen content compared to the vehicle-treated group ([4]; treatment from Day 14 to Day 28, 30 mg/kg p.o. BID): significant reduction |
| Cc1ccc(NC(=O)c2ccc(CN3CCN(C)CC3)cc2)cc1Nc1nccc(-c2cccnc2)n1 [Imatinib, Imatinib mesylate, reference compound] | – | – | non-significant reduction | – |
| C[C@H]1C[C@H]2[C@@H]3CCC4=CC(=O)C=C[C@]4(C)[C@@]3(F)[C@@H](O)C[C@]2(C)[C@@]1(O)C(=O)CO [Betamethasone, reference compound] | – | – | non-significant reduction | – |
| CC(C)CN(Cc1ccc(C(=O)O)cc1)C(=O)c1ccc(Oc2ccccc2F)cc1 [Example 4, 4-((4-(2-Fluorophenoxy)-N-isobutylbenzamido)methyl)benzoic acid] | 63 | 49 | – | In vivo efficacy (minimum effective dose (MED) (LPA5 receptor [3]; route ip): 1 mg/kg; In vivo efficacy (minimum effective dose (MED) mg/kg) (LPA5 receptor [3]; route po): ≦10 mg/kg |
| Cc1ccccc1Oc1ccc(C(=O)N(Cc2ccccc2)Cc2ccc(C(=O)O)cc2)cc1 [Example 24, 4-((N-Benzyl-4-(o-tolyloxy)benzamido)methyl)benzoic acid] | 7 | 11 | – | In vivo efficacy (minimum effective dose (MED) (LPA5 receptor [3]; route po): 30 mg/kg |
